PubChem BioAssay AID2060904 (Molecular Pharmacology Branch, DTP, NCI, 2025)
Values belong to the compound of their own block, whether it stands above or below them.

System: 349418-098-R-PDC complex spheroid viability
Assay: Anticancer human tumor 349418-098-R-PDC patient-derived lung adenocarcinoma cell line growth inhibition [RAS]
Settings: for IC50: curve of first compound; for viability, T/C: stronger effect = lower value
Summary of the method: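 Tumour cells grown as complex spheroids with HUVEC endothelial cells and mesenchymal stem cells, treated with RAS pathway inhibitor combinations. Each agent spans half-log steps from near clinical Cmax, or 10 microM where Cmax is unknown.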

[1] = second compound 0.00316 µM, first compound 0.0316 µM
[2] = second compound 0.00316 µM, first compound 0.1 µM
[3] = second compound 0.00316 µM, first compound 0.316 µM
[4] = second compound 0.00316 µM, first compound 1 µM
[5] = second compound 0.01 µM, first compound 0.0316 µM
[6] = second compound 0.01 µM, first compound 0.1 µM
[7] = second compound 0.01 µM, first compound 0.316 µM
[8] = second compound 0.01 µM, first compound 1 µM
[9] = second compound 0.0316 µM, first compound 0.0316 µM
[10] = second compound 0.0316 µM, first compound 0.1 µM
[11] = second compound 0.0316 µM, first compound 0.316 µM
[12] = second compound 0.0316 µM, first compound 1 µM
[13] = second compound 0.1 µM, first compound 0.0316 µM
[14] = second compound 0.1 µM, first compound 0.1 µM
[15] = second compound 0.1 µM, first compound 0.316 µM
[16] = second compound 0.1 µM, first compound 1 µM
[17] = second compound 0.316 µM, first compound 0.0316 µM
[18] = second compound 0.316 µM, first compound 0.1 µM
[19] = second compound 0.316 µM, first compound 0.316 µM
[20] = second compound 0.316 µM, first compound 1 µM
[21] = second compound 1 µM, first compound 0.0316 µM
[22] = second compound 1 µM, first compound 0.1 µM
[23] = second compound 1 µM, first compound 0.316 µM
[24] = second compound 1 µM, first compound 1 µM
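Also: spheroids exposed to compound for seven days before viability readout.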

IC50 (second compound 0.00316 µM): > 1000 nM
IC50 (second compound 0.01 µM): > 1000 nM
IC50 (second compound 0.0316 µM): > 1000 nM
IC50 (second compound 0.1 µM): > 1000 nM
IC50 (second compound 0.316 µM): > 1000 nM
IC50 (second compound 1 µM): > 1000 nM
Compound: C=CC(=O)Nc1cc(Nc2nccc(-c3cn(C)c4ccccc34)n2)c(OC)cc1N(C)CCN(C)C + C=CC(=O)N1CCN(c2nc(OCC3CCCN3C)nc3c(F)c(-c4nc(N)cc(C)c4C(F)(F)F)c(Cl)cc23)C(C)C1
viability, T/C (second compound 0.00316 µM, first compound 0.00316 µM): 80.7%
viability, T/C (second compound 0.00316 µM, first compound 0.01 µM): 119%
viability, T/C [1]: 91.5%
viability, T/C [2]: 69.9%
viability, T/C [3]: 64.8%
viability, T/C [4]: 72.9%
viability, T/C (second compound 0.01 µM, first compound 0.00316 µM): 83.7%
viability, T/C (second compound 0.01 µM, first compound 0.01 µM): 97.5%
viability, T/C [5]: 90.5%
viability, T/C [6]: 71.8%
viability, T/C [7]: 61.3%
viability, T/C [8]: 56.6%
viability, T/C (second compound 0.0316 µM, first compound 0.00316 µM): 86.6%
viability, T/C (second compound 0.0316 µM, first compound 0.01 µM): 129%
viability, T/C [9]: 86.1%
viability, T/C [10]: 96%
viability, T/C [11]: 80.5%
viability, T/C [12]: 52.8%
viability, T/C (second compound 0.1 µM, first compound 0.00316 µM): 65.5%
viability, T/C (second compound 0.1 µM, first compound 0.01 µM): 123%
viability, T/C [13]: 89.4%
viability, T/C [14]: 75.4%
viability, T/C [15]: 87.9%
viability, T/C [16]: 69.2%
viability, T/C (second compound 0.316 µM, first compound 0.00316 µM): 74.9%
viability, T/C (second compound 0.316 µM, first compound 0.01 µM): 99.9%
viability, T/C [17]: 100%
viability, T/C [18]: 117%
viability, T/C [19]: 82.6%
viability, T/C [20]: 67%
viability, T/C (second compound 1 µM, first compound 0.00316 µM): 90.8%
viability, T/C (second compound 1 µM, first compound 0.01 µM): 96.9%
viability, T/C [21]: 81.7%
viability, T/C [22]: 88.4%
viability, T/C [23]: 88.6%
viability, T/C [24]: 65.6%

IC50 (second compound 0.00316 µM): 386 nM
IC50 (second compound 0.01 µM): 252 nM
IC50 (second compound 0.0316 µM): 593 nM
IC50 (second compound 0.1 µM): 545 nM
IC50 (second compound 0.316 µM): 620 nM
IC50 (second compound 1 µM): 553 nM
Compound: CC(C)NCC(C(=O)N1CCN(c2ncnc3c2C(C)CC3O)CC1)c1ccc(Cl)cc1 (centres undefined) + C=CC(=O)N1CCN(c2nc(OCC3CCCN3C)nc3c(F)c(-c4nc(N)cc(C)c4C(F)(F)F)c(Cl)cc23)C(C)C1
viability, T/C [1]: 88.2%
viability, T/C [2]: 86.6%
viability, T/C [3]: 53.7%
viability, T/C [4]: 24.3%
viability, T/C (second compound 0.00316 µM, first compound 3.16 µM): 17.2%
viability, T/C (second compound 0.00316 µM, first compound 10 µM): 7.89%
viability, T/C [5]: 102%
viability, T/C [6]: 83.9%
viability, T/C [7]: 39.3%
viability, T/C [8]: 23.7%
viability, T/C (second compound 0.01 µM, first compound 3.16 µM): 15.9%
viability, T/C (second compound 0.01 µM, first compound 10 µM): 9.35%
viability, T/C [9]: 78%
viability, T/C [10]: 77.1%
viability, T/C [11]: 81.2%
viability, T/C [12]: 26.1%
viability, T/C (second compound 0.0316 µM, first compound 3.16 µM): 22.7%
viability, T/C (second compound 0.0316 µM, first compound 10 µM): 10%
viability, T/C [13]: 70%
viability, T/C [14]: 67.5%
viability, T/C [15]: 67.6%
viability, T/C [16]: 31.1%
viability, T/C (second compound 0.1 µM, first compound 3.16 µM): 16.1%
viability, T/C (second compound 0.1 µM, first compound 10 µM): 9.41%
viability, T/C [17]: 66.8%
viability, T/C [18]: 82.1%
viability, T/C [19]: 76.3%
viability, T/C [20]: 32.2%
viability, T/C (second compound 0.316 µM, first compound 3.16 µM): 24.5%
viability, T/C (second compound 0.316 µM, first compound 10 µM): 7.85%
viability, T/C [21]: 72.8%
viability, T/C [22]: 65.4%
viability, T/C [23]: 71.8%
viability, T/C [24]: 28.8%
viability, T/C (second compound 1 µM, first compound 3.16 µM): 25%
viability, T/C (second compound 1 µM, first compound 10 µM): 10.2%
